Laboratory results published in publication PMC10449632, “Structural basis for translation inhibition by the glycosylated drosocin peptide” (Nature Chemical Biology, 2023).
No end group written: not given here. *: point of attachment. αGalNAc = CC(=O)N[C@@H]1[C@@H](O)[C@@H](O)[C@@H](CO)O[C@@H]1*

Legend:
E. coli SQ110 A2059G = experiment: Antibiotic susceptibility (growth) assay, E. coli SQ110 A2059G; format: cell-based, Escherichia coli; conditions: A2059G mutation; LB medium; 5, 10, 30 μM
Excerpt: (§1) Strains E. coli Keio wild-type and E. coli Keio ΔsbmA used from the Keio knockout collection (Horizon, https://horizondiscovery.com). Wild-type E. coli SQ110 (ΔrrnGADBHC(ptRNA67))[47] and SQ171 (ΔrrnGADEHBC(pKK3535, ptRNA67))[47] strains and related mutants E. coli SQ110 A2059G and E. coli SQ171 A2503G were obtained from the previous Api137 study. E. coli strains SQ171 bearing A752G, U2609C and A752G:U2609C mutations[43] and E. coli SQ171 U2609G[48] were generated previously.
(§2) The susceptibility of E. coli strains to compounds was evaluated by monitoring the bacterial growth in presence of increasing concentrations of the compound of interest. […] Values measured from wells containing just the medium were used as a blank. The growth in each well was monitored by measuring the OD600 every 10 minutes for a total of 20 hours at 37 °C with shaking using a plate reader (Tecan Infinite 200 PRO). The inhibition resulting from a compound’s concentration was evaluated by normalizing the OD600 at t = 12 hours (corresponding to the end of the log phase) from the treated culture to the untreated one. […] For each concentration, the standard deviation was calculated, taking into account each single replica and its specific technical error from the plate reader.

E. coli SQ171 A2503G = experiment: Antibiotic susceptibility (growth) assay, E. coli SQ171 A2503G; format: cell-based, Escherichia coli; conditions: A2503G mutation; LB medium; 5, 10, 30 μM
Excerpt: as §1, §2

[1] = system: ribosomes at the stop codon of MLIF-UAA mRNA in the presence of RF2; experiment: Toeprinting assay on MLIF*-mRNA with RF2; format: biochemical, Escherichia coli; conditions: Fig 1h, RF2 (10X), 30 μM compound, plotted values
Method: To ascertain which step during protein synthesis is affected by drosocin, we performed toeprinting assays, where reverse transcription is used to monitor the position of ribosomes on a defined mRNA[34].
Toeprinting reactions were performed as described previously. In brief, reactions were performed with 6 μl of PURExpress ΔRF123 in vitro protein synthesis system (NEB) in the presence of 1× RF3 and either 1× or 10× of RF1 or RF2 (relative to the manufacturer’s recommendation). The reactions were carried out on an MLIF-UAA-toeprint template (5′-[…]-3′, ORF start codon and stop codon are underlined bold), containing T7 promoter, a ribosome binding site, an MLIF-coding ORF and the NV1* primer binding site. The template is a version of the ErmBL template with a truncated ORF and addition of a isoleucine coding codon at the third position in the ORF. The template was generated by polymerase chain reaction of two overlapping 77-nt- and 78-nt-long primers. The reactions contained 30 ng of the MLIF-UAA-toeprint DNA template. The reactions were supplemented with Api137, thiostrepton or one of the drosocin derivates as specified. The transcription–translation reactions were incubated for 15 minutes at 37 °C. The reverse transcription on the MLIF-short-UAA toeprint template was carried out using AMV RT and primer NV*1-Alexa 647 (5′-[…]-3′). The transcription–translation reactions were incubated with AMV RT and NV*1-Alexa 647 for 20 minutes at 37 °C. mRNA degradation was carried out by the addition of 1 µl of 5 M NaOH. The reactions were neutralized with 0.7 µl of 25% HCl, and nucleotide removal was performed with the QIAquick Nucleotide Removal Kit (Qiagen). The samples were dried under vacuum for 2 hours at 60 °C for subsequent gel electrophoresis. The 6% acrylamide gels were scanned on a Typhoon scanner (GE Healthcare).

Substance | resistance of mutant compared to the wild-type strain (E. coli SQ110 A2059G) | resistance of mutant compared to the wild-type strain (E. coli SQ171 A2503G) | Relative stop band intensity signal [1]
Dro1: naturally occurring drosocin carrying monosaccharide α-D-GalNAc attached to Thr11 (GKPRPYSPRPT(αGalNAc)SHPRPIRV; UniProt P36193 22-40, looked up) | more resistant | more resistant | 0.1899
Dro: unmodified drosocin, 19 amino acid proline-rich antimicrobial peptide lacking O-glycosylation (GKPRPYSPRPTSHPRPIRV; Drosocin; UniProt P36193 22-40, looked up) | – | – | 0.1232
